≈ marks a conversion by molar mass, not a printed value. Marks after values point to notes of the source that are not given here.
Columns and labels:
E. coli = test: MIC determination, E. coli; type: cell-based, Escherichia coli
Protocol: (§1) Minimal Inhibitory Concentration (MIC) determinations. […] Each drug is evaluated at five concentrations, with five data points at each dilution. MIC values (μg/ml) were determined against actively growing cultures in Heart-Brain Infusion (HBI) medium. Cell growth in cultures supplemented with a test compound was calculated as a percent of control at OD 600 nm after 16 to 18 hours at 37° C. This plate format conserves test compound and provides precise, quantitative data with low standard deviation determinations.

B. subtilis = test: MIC determination, B. subtilis; type: cell-based, Bacillus subtilis
Protocol: as §1

S. aureus (Smith) = test: MIC determination, S. aureus (Smith); type: cell-based, Staphylococcus aureus
Protocol: as §1

E. fecalis = test: MIC determination, E. fecalis; type: cell-based, Enterococcus fecalis
Protocol: as §1, with “C.” for “C. This plate format conserves test compound and provides precise, quantitative data with low standard deviation determinations.”

E. fecium = test: MIC determination, E. fecium; type: cell-based, Enterococcus fecium
Protocol: as §1, with “C.” for “C. This plate format conserves test compound and provides precise, quantitative data with low standard deviation determinations.”

S. aureus = test: MIC determination, S. aureus; type: cell-based, Staphylococcus aureus
Protocol: as §1

[1] = tested on: MSSA108 (methicillin sensitive S. aureus strain); test: MIC determination, MSSA108; type: cell-based; settings: Staphylococcus aureus, read-out: MIC (μg/ml) MSSA108
Protocol: as §1
Compounds were also tested for antibacterial activity against certain clinically relevant strains, e.g., methicillin sensitive (MSSA) and methicillin resistant (MRSA) strains of Staphylococcus aureus.

[2] = tested on: Staphylococcus aureus (Smith strain); test: Protection of mice from lethal intraperitoneal infection, compound given intraperitoneally; type: in vivo; settings: 15 minutes after infection
Protocol: FIG. 1B is a bar graph showing number of survivors in each group of five mice at 24 hours after intraperitoneal infection with 1×10^8 colony forming units (CFU) of Staphylococcus aureus (Smith strain) and followed 15 minutes post infection by administration of Compound 2 at a dose of 0 (Vehicle Control), 1, 3, and 10 mg of compound per kg of body weight. Vancomycin at a dose of 10 mg/kg of body weight served as a positive control for antibiotic activity. See text for details.
FIG. 2B is a bar graph showing number of survivors of a group of five mice at 24 hours after intraperitoneal infection with Staphylococcus aureus (Smith strain) as in FIG. 1B, except that Compound 10 was administered to each animal at 0, 0.1, 0.3, 1.0, 3.0, and 10 mg/kg body weight at 15 minutes post infection. Controls were the same as in FIG. 1B. See text for details.
FIG. 3B is a bar graph showing number of survivors in each group of five mice at 24 hours after intraperitoneal infection with Staphylococcus aureus (Smith strain) as in FIG. 1, except that 15 minutes after infection, the mice in each group received a dose of 0.5 mg/kg of body weight of compound 10, 4, 5, 6, 7, 8, or 12. Controls were the same as in FIG. 1. See text for details.
(§2) Swiss Webster mice, ca. 20 g each, were infected with Staphylococcus aureus (Smith strain) by the intraperitoneal route. Test compounds (2, 4, 5, 6, 7, 8, 10, 12) were dissolved in 10% dimethylsulfoxide in peanut oil to a concentration of 2 mg/ml. Vancomycin was used as positive control drug (i.e., protection from lethal infection). Fifteen minutes after infection, test compounds, vancomycin, or vehicle alone were given intraperitoneally to groups of five mice each. Animals were monitored for three days, and the number of mice surviving was tabulated for each treatment.

[3] = tested on: enterococci or staphylococci strains, including MRSA and VRE strains; test: In vivo activity of Compound 70 against intraperitoneal challenge, overall statement; settings: mice; administration from distant parenteral sites (i.e., iv, sc, or im)
Protocol: (§3) Using the same basic procedure as described above, the in vivo efficacy of Compound 70 was also evaluated at various doses in mice infected with S. aureaus (Smith), MRSA 1094, Enterococcus faecalis, or vancomycin-resistant Enterococcus faecalis strain VRE 700802. […] Negative controls were mice infected that received no treatment. Mucin was employed as an adjuvant to facilitate bacterial infection in mice, where indicated.

B. subtilis Pol IIIC = target: T1, B. subtilis Pol IIIC (Bacillus subtilis, UniProt P13267); test: Polymerase IIIC (Pol IIIC) assay, determination of Ki values; type: biochemical; settings: Ki = concentration that reduces control polymerase activity by 50 percent
T1 construct: made in house
Protocol: Polymerase IIIC (Pol IIIC) assay. DNA polymerase activity (or inhibition thereof) was measured in a 96-well plate format. B. subtilis Pol IIIC was isolated as described by Hammond and Brown (Protein Expr. Purif., 3: 65-70 (1992)). Each 25 μl assay contained 30 mM Tris, pH 7.5, 10 mM magnesium acetate, 4 mM dithiothreitol, 20% glycerol, with 25 μM dATP, dCTP, dGTP and 10 μM dTTP (3H-labelled at 1.44 Ci/mmole) and 0.4 mg/ml activated calf thymus DNA as substrates, as described previously (see Barnes et al, op. cit). Assays were initiated by the addition of 0.025 to 0.06 units of enzyme 1 unit is the amount required to incorporate 250 pmoles of [^3H] dTMP in a standard assay), incubated for 10 minutes at 30° C. and terminated by the addition of 200 μl of cold 10% trichloroacetic acid (TCA), 10 mM sodium pyrophosphate. Precipitated labeled DNA was collected on glass fiber filter plates, washed, dried, and counted in a liquid scintillation counter.
Determination of Ki values. DNA polymerase activity was measured in a 96-well plate format in the absence of dGTP or dATP, depending on the structure of the test compound. Each 25 μl assay contained 30 mM Tris, pH 7.5, 10 mM magnesium acetate, 4 mM dithiothreitol, 20% glycerol, with 25 μM dATP, dCTP, and 10 μM dTTP (3H-labelled at 1.44 Ci/mmole) and 0.4 mg/ml activated calf thymus DNA as substrates, as described previously. To each well were added 2 μl of compound solution to give final concentrations ranging from 20-0.027 μg/ml in the assay. Assays were initiated by the addition of 0.025 to 0.06 units of enzyme (1 unit is the amount required to incorporate 250 pmoles of [^3H] dTMP in a standard assay), incubated for 10 minutes at 30° C. and terminated by the addition of 200 μl of cold 10% trichloroacetic acid, 10 mM sodium pyrophosphate. Precipitated labeled DNA was collected on glass fiber filter plates, washed, dried, and counted in a liquid scintillation counter. Ki is the concentration of test compound that reduces the control polymerase mc activity by 50 percent.

[4] = tested on: vancomycin-resistant Enterococcus faecalis strain VRE 700802; test: In vivo efficacy of Compound 70 in mouse model, VRE 700802; settings: mice, 3 × 10^8 CFU/mouse +5% Mucin; positive control, 100 mg/kg, t = 0
Protocol: as §2, §3

[5] = tested on: Enterococcus faecalis (ATCC 29212); test: In vivo efficacy of Compound 70 in mouse model, Enterococcus faecalis; settings: mice, 3 × 10^7 CFU/mouse +5% Mucin; positive control, 100 mg/kg, t = 0
Protocol: as §2, §3

[6] = Swiss Webster mice, dosage range 1-10 mg/kg body weight
[7] = HBI medium, 16 to 18 hours at 37° C.

T1 sequence (P13267 whole entry): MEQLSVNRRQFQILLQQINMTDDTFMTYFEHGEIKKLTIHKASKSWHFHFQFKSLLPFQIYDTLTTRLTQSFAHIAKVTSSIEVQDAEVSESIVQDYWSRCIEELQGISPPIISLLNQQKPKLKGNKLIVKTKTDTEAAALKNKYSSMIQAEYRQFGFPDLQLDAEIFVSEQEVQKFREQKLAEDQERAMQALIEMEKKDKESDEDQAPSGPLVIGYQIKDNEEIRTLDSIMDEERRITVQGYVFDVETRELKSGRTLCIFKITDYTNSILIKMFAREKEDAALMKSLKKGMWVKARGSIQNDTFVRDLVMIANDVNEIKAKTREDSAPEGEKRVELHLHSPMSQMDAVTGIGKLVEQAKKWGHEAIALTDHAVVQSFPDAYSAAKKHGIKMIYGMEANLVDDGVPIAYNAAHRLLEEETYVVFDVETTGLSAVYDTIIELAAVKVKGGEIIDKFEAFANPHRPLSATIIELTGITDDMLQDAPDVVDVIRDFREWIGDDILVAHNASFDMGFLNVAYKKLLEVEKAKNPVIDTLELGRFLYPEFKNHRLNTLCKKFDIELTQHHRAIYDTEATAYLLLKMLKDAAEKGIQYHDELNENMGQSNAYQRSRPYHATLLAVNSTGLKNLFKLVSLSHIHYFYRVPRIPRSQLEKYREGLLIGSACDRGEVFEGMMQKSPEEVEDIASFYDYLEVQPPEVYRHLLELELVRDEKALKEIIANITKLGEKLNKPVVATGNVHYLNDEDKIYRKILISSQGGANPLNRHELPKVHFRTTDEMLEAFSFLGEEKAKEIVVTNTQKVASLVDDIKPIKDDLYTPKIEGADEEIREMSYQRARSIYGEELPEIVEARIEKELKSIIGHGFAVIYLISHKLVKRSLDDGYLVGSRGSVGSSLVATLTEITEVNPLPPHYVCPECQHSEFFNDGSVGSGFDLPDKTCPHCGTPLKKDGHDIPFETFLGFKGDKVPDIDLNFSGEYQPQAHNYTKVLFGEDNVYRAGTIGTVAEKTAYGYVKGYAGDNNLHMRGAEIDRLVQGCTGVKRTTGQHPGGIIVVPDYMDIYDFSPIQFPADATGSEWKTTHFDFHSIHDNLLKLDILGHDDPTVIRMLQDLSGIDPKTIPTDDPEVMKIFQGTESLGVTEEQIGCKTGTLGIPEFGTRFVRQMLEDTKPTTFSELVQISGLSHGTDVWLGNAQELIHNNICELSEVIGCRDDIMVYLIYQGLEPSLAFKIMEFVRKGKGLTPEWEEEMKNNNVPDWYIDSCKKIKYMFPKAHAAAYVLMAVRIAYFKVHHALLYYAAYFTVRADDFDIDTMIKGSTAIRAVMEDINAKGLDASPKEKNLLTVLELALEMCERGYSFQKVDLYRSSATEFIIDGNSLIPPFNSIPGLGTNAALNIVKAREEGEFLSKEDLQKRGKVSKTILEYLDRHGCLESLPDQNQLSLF

Question: How did the “MIC (μg/ml) E. coil” value (E. coli; second table) turn out when “3-{5-[1-(1-ethyl-3-carboxy-4-oxo-6,8-difluoro-7-quinolyl)-3-(1,3-diazabicyclononyl)]pentyl}-6-(3-ethyl-4-methylanilino)uracil [Compound 88]” was run?
Answer: >20 µg/mL

Question: What about the “MIC (μg/ml) B. subtilis” value (B. subtilis; second table) of the same compound?
Answer: 0.625 µg/mL

Question: What about the “MIC (μg/ml) S. a. (Smith)” value (S. aureus (Smith); second table) of the same compound?
Answer: 1.25 µg/mL

Question: And the “MIC (μg/ml) E. fecalis” value (E. fecalis; second table)?
Answer: 2.5 µg/mL

Question: And the “MIC (μg/ml) E. fecium” value (E. fecium; second table)?
Answer: 5 µg/mL

Question: What about the “MIC (μg/ml) S. aureus” value (S. aureus; second table) of the same compound?
Answer: 1.25 µg/mL

Question: `CCc1cc(Nc2cc(=O)n(CCCCN3CCN(c4cc5c(cc4F)c(=O)c(C(=O)O)cn5CC)CC3)c(=O)[nH]2)ccc1C` [Compound 1, 3-{4-[1-(1-ethyl-3-carboxy-4-oxo-6-fluoro-7-quinolyl)-4-piperazinyl]butyl}-6-(3-ethyl-4-methylanilino)uracil] was tested. Which MIC (S. aureus (Smith); Staphylococcus aureus, table of clinically relevant strains, read-out: MIC (μg/ml) S. aureus (Smith)) did it give?
Answer: 0.313 µg/mL (≈ 0.506 µM)

Question: What about the MIC [1] of the same compound?
Answer: 0.313 µg/mL (≈ 0.506 µM)

Question: What about the MIC (S. aureus; Staphylococcus aureus, table of clinically relevant strains, read-out: MIC (μg/ml) S. aureus) of the same compound?
Answer: 0.313 µg/mL (≈ 0.506 µM)

Question: Which “protection of infected mice (group of five)” value (“protection of infected mice” below) [2, 6] does the source give for `CCc1cc(Nc2cc(=O)n(CCCCN3CCN(c4cc5c(cc4F)c(=O)c(C(=O)O)cn5C4CC4)CC3)c(=O)[nH]2)ccc1C` [Compound 2, 3-{4-[1-(1-cyclopropyl-3-carboxy-4-oxo-6-fluoro-7-quinolyl)-4-piperazinyl]butyl}-6-(3-ethyl-4-methylanilino)uracil] here?
Answer: protection was afforded all five infected mice

Question: With `CCc1cc(Nc2cc(=O)n(CCCCN3CCN(c4cc5c(cc4F)c(=O)c(C(=O)O)cn5C4CC4)CC3)c(=O)[nH]2)ccc1C.CS(=O)(=O)O` [Compound 10, 3-{4-[1-(1-cyclopropyl-3-carboxy-4-oxo-6-fluoro-7-quinolyl)-4-piperazinyl]butyl}-6-(3-ethyl-4-methylanilino)uracil methanesulfonate] as the compound, how does the “infected mice protected from death (group of five)” value ([2]; dose 0.3 mg per kg body weight) read?
Answer: one of five

Question: And the “protection of infected mice” value ([2]; dose of 1 mg/kg or higher)?
Answer: complete protection

Question: And the “protection of infected mice” value [2, 6]?
Answer: provided protection in the same dosage range as Compound 2

Question: How did the “activity against intraperitoneal challenge” value [3] turn out when `CCc1cc(Nc2cc(=O)n(CCCCN3CCN(c4c(F)cc5c(=O)c(C(=O)O)cn(C6CC6)c5c4F)CC3C)c(=O)[nH]2)ccc1C` (centres unmarked) [Compound 70, 3-{4-[1-(1-cyclopropyl-3-carboxy-4-oxo-6,8-difluoro-7-quinolyl)-4-(3-methylpiperazinyl)]butyl}-6-(3-ethyl-4-methylanilino)uracil] was run?
Answer: dose-related activity

Question: For `CCc1cc(Nc2ccc(NC(=O)N3CCN(c4cc5c(cc4F)c(=O)c(C(=O)O)cn5CC)CC3)c(=O)[nH]2)ccc1C` [Compound 77, 3-{[1-(1-ethyl-3-carboxy-4-oxo-6-fluoro-7-quinolyl)-4-piperazinyl]carboxamido}-6-(3-ethyl-4-methylanilino)-2-pyridone], which Ki (B. subtilis Pol IIIC; second table) is on record?
Answer: 8 µM

Question: What does the source list for `CCc1cc(Nc2cc(=O)n(CCCCO)c(=O)[nH]2)ccc1C` [HB-EMAU, reference compound]?
Answer: MIC (μg/ml) E. coli (E. coli; [7]): >80 µg/mL; Ki (B. subtilis Pol IIIC): 0.066 µM; MIC (μg/ml) B. subtilis (B. subtilis; [7]): 1.25 µg/mL (≈ 3.94 µM); MIC (μg/ml) S. aureus (Smith) (S. aureus (Smith); [7]): 5 µg/mL (≈ 15.8 µM); MIC (μg/ml) E. fecalis (E. fecalis; [7]): 5 µg/mL (≈ 15.8 µM); MIC (μg/ml) E. fecium (E. fecium; [7]): 5 µg/mL (≈ 15.8 µM); MIC (μg/ml) S. aureus (S. aureus; [7]): 10 µg/mL (≈ 31.5 µM)

Question: With `O=C(O)c1cn(C2CC2)c2cc(N3CCNCC3)c(F)cc2c1=O` [cflxn, ciprofloxacin] as the compound, how does the “Ki (μM) Pol IIIC” value (B. subtilis Pol IIIC) read?
Answer: inactive

Question: What about the “% Survival at 72 hours” value [4] of the same compound?
Answer: 90% (9/10)**

Question: With `CCn1cc(C(=O)O)c(=O)c2cc(F)c(N3CCNCC3)cc21` [nflxn, norfloxacin] as the compound, how does the “Ki (μM) Pol IIIC” value (B. subtilis Pol IIIC) read?
Answer: inactive

Question: For `CN[C@H](CC(C)C)C(=O)N[C@H]1C(=O)N[C@@H](CC(N)=O)C(=O)N[C@H]2C(=O)N[C@H]3C(=O)N[C@H](C(=O)N[C@H](C(=O)O)c4cc(O)cc(O)c4-c4cc3ccc4O)[C@H](O)c3ccc(c(Cl)c3)Oc3cc2cc(c3O[C@@H]2O[C@H](CO)[C@@H](O)[C@H](O)[C@H]2O[C@H]2C[C@](C)(N)[C@H](O)[C@H](C)O2)Oc2ccc(cc2Cl)[C@H]1O` [vancomycin], which “% Survival at 72 hours” value [5] is on record?
Answer: 100% (10/10)**

Reference: patent US6777420B2, “Heterocyclic antibacterial compounds” (Microbiotix, Inc., priority 2001, dated 2004)
